Test results published in the NIST ThermoML archive (doi:10.1016/j.jct.2016.06.007).

Assay: mn = molality of the nth substance listed, in mol/kg
Details: Liquid, m1 = 7.377; for viscosity: Falling or rolling sphere viscometry; for mass density: Vibrating tube method

CN(CCO)CCO [N-methyldiethanolamine] + O
Details	mass density [kg/m3]	viscosity [mPa·s]
313.15 K, 6.3 kPa	1031.4	4.23
328.15 K, 13.7 kPa	1021.6	2.82
343.15 K, 27.4 kPa	1009.7	1.83
